PMC12598616, “Design and optimization of caspase-1-responsive fluorescent probes for pyroptosis imaging and anti-pyroptosis drug screening” (Chemical Science, 2025)

Assays:
[1] = system: activated Cas-1 in primary peritoneal macrophages; experiment: High-content screening / fluorescence imaging for caspase-1 modulators in primary peritoneal macrophages; format: cell-based, mouse; details: MCC950 1 μM with Nig 10 μM simultaneously, after LPS; FPy1 5 μM
From the text: The efficient and rapid discovery of Cas-1 modulators is of significant importance considering the therapeutic potential of Cas-1 in various diseases.[39,40] Therefore, we employed FPy1 to construct a high-content screening system aimed at identifying Cas-1 modulators. The level of activated Cas-1 in cells is influenced by multiple factors. To reduce the impact of factors that affect Cas-1 activation in cells, we utilized the NLRP3 inflammasome-mediated Cas-1 activation model, administering the drug during the second stage where the zymogen was converted into activated Cas-1. MCC950, a selective NLRP3 inflammasome inhibitor that could suppress Cas-1 activation, was selected as the positive drug.[41] […] To validate the efficacy of the Cas-1 modulator screening system (Fig. 6a), we first observed the fluorescence images of PMs stained with FPy1 (5 μM) in the control group, model group, and positive drug group. […] Subsequently, the impact of 25 natural products (10 μM) on activated Cas-1 were studied using high-content analysis (Fig. S20). […] To determine whether deoxyshikonin directly binds to Cas-1 and inhibits its activity, we conducted fluorescence detection following co-incubation of deoxyshikonin, FPy1 and Cas-1. […]
Harvested rat discs were fixed in 4 % buffered paraformaldehyde for 24 hours, decalcified in 10 % ethylenediaminetetraacetic acid (EDTA, Solarbio, E8030) solution for 1 month, embedded in paraffin, and sectioned at a thickness of 5 μm. […] Stained sections were evaluated by three independent raters, blinded to the research protocol, and measurements were averaged for statistical analysis. […]
In vivo fluorescence imaging of intervertebral disc degeneration
Twelve rats were modeled with needle puncture-induced intervertebral disc degeneration at the Co5/6, Co6/7 and Co 7/8 levels. […] In vivo fluorescence images were acquired using an in vivo Imaging System (PerkinElmer). […]
In vivo fluorescence imaging of osteoarthritis […]

caspase-1 [2] = target: T1, caspase-1 (Homo sapiens, UniProt P29466); experiment: Reaction time of probes for caspase-1; format: biochemical; details: probe 5 μM, Cas-1 2 U/mL, assay buffer, 37 °C
T1 sequence (P29466 120-297 limits assumed): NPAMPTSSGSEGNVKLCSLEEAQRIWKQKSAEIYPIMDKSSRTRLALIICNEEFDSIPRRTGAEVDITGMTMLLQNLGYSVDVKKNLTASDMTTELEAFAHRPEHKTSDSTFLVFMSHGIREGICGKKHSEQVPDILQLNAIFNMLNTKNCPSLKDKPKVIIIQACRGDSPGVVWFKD
T1 sequence (P29466 317-404 limits assumed): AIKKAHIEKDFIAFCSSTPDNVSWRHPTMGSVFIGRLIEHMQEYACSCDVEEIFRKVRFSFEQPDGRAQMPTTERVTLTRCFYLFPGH
Protocol: The spectral and chemical properties of all probes were then evaluated. Upon interaction with Cas-1, the specific peptide of the probes is cleaved, leading to the disruption of the FRET process in the system and the recovery of donor fluorescence (Fig. 2a). Prior to fluorescence detection, the UV-vis absorption spectra of the probes were acquired. […] Subsequently, the sensitivity of the probes towards Cas-1 was measured in HEPES buffer (50 mM HEPES, 50 mM NaCl, 0.1% chaps, 5% glycerol, 10 mM DTT, 10 mM EDTA). […] The response differences among the probes were more intuitively observed by analyzing the standard curves of fluorescence intensity at 585 nm against the concentration of Cas-1 (Fig. 2b). […] The reaction kinetics of the probes were also measured by monitoring the fluorescence intensity of FPy1, YPy1 and WPy1 (0.5–4 μM) following incubation with Cas-1 (2 U mL^−1) (Fig. S3a–f). […] The reaction time of the probes was also investigated by monitoring the fluorescence spectra of the probes (5 μM) incubated with Cas-1 (2 U mL^−1) at various time intervals (Fig. S4a–c). […] Finally, the selectivity of the probes was evaluated. […]
(§1) To investigate the sensitivity of the probes for caspase-1, varying concentration of caspase-1 (0, 0.2, 0.4, 0.6, 0.8, 1.0, 1.25, 1.5, 1.75, 2, 2.5, 3 U/mL) were incubated with FPy1 (5 μM), YPy1 (5 μM) and WPy1 (5 μM) respectively in caspase-1 assay buffer (50 mM HEPES, 50 mM NaCl, 0.1 % chaps, 5 % glycerol, 10 mM DTT, 10 mM EDTA) at 37 °C for 2 hours. Fluorescence spectra were recorded using Hitachi F-2700 spectrophotometer with an excitation at 510 nm (Photomultiplier voltage 700 V; Slit widths ex: 10 nm and em =5.0 nm). The fluorescence intensity of FPy1, YPy1 and WPy1 at 585 nm were plotted against the concentration of caspase-1, and a linear regression fitted from the corresponding concentration of caspase-1, and linear regression was applied to determine the slope k. The limit of detection (LoD) was calculated from 3σ/k, in which σ represents the standard deviation of 15 blank measurements. […]

caspase-8 = experiment: Selectivity of probes: caspase-8; format: biochemical, human; details: caspase-8 1 μg/mL, 37 °C, 2 h, λex 510 nm, λem 585 nm
From the text: The resin used for SPPS was purchased from GL Biochem (Shanghai, China). Lipopolysaccharide (LPS, L2630), Nigericin and ATP (11140965001) were purchased from Merck (Shanghai, China) and Invitrogen (Shanghai, China), respectively. Cell culture plates were sourced from Wuxi NEST Biotechnology. Recombinant human caspase-1, caspase-3, caspase-4, and caspase-8 were obtained from Abcam and MCE (Shanghai, China). Anti-cleaved caspase-1 antibody, anti-GAPDH antibody, and goat anti-Rabbit/anti-mouse lgG/HRP were purchased from CST (USA) and Beyotime […]
(§2) (Shanghai, China). […]
(§3) Medical College (ethical approval number ZJCLA-IACUC-20011003).
(§4) (also on this page, place not known: Wang,*f, Wang*abg Supplementary Information (SI) for Chemical Science. This journal is © The Royal Society of Chemistry 2025)
(§5) (1 picture or pasted object on this page, not shown here) […]
mixture was stirred for 3 h. […]
as §1
The fluorescence intensity at 585 nm was measured on a Tecan Infinite M1000 Multi-function microplate reader (λex = 510 nm) at 37 °C every 2 minutes. The K M value of probes was determined from the Lineweaver-Burk plot. […]

caspase-1 [3] = target: T1, caspase-1; experiment: Sensitivity of probes for caspase-1 (fluorescence at 585 nm); format: biochemical; details: probe 5 μM
Protocol: The spectral and chemical properties of all probes were then evaluated. Upon interaction with Cas-1, the specific peptide of the probes is cleaved, leading to the disruption of the FRET process in the system and the recovery of donor fluorescence (Fig. 2a). Prior to fluorescence detection, the UV-vis absorption spectra of the probes were acquired. […] Subsequently, the sensitivity of the probes towards Cas-1 was measured in HEPES buffer (50 mM HEPES, 50 mM NaCl, 0.1% chaps, 5% glycerol, 10 mM DTT, 10 mM EDTA). […] The response differences among the probes were more intuitively observed by analyzing the standard curves of fluorescence intensity at 585 nm against the concentration of Cas-1 (Fig. 2b). […] The reaction kinetics of the probes were also measured by monitoring the fluorescence intensity of FPy1, YPy1 and WPy1 (0.5–4 μM) following incubation with Cas-1 (2 U mL^−1) (Fig. S3a–f). […] The reaction time of the probes was also investigated by monitoring the fluorescence spectra of the probes (5 μM) incubated with Cas-1 (2 U mL^−1) at various time intervals (Fig. S4a–c). […] Finally, the selectivity of the probes was evaluated. A series of potential biologically relevant interferents were selected, and the results illustrated that these interferents had no effect on the probes (Fig. S5a–c). Further selectivity validation was performed through incubating with caspase-3 (1 μg mL^−1), caspase-4 (2 U mL^−1), caspase-8 (1 μg mL^−1) from the caspase protease family. […] Therefore, FPy1 appeared to be the prime candidate for Cas-1 imaging applications. […]
Cell culture plates were sourced from Wuxi NEST Biotechnology. Recombinant human caspase-1, caspase-3, caspase-4, and caspase-8 were obtained from Abcam and MCE (Shanghai, China). Anti-cleaved caspase-1 antibody, anti-GAPDH antibody, and goat anti-Rabbit/anti-mouse lgG/HRP were purchased from CST (USA) and Beyotime […]
as §2, §3, §4, §5
mixture was stirred for 3 h. DCM was removed under vacuum, and the residue was purified by silica gel column chromatography (DCM/MeOH, 180/1) to afford WPy1 as a dark purple solid (21 mg, 6 % yield). HRMS (ESI+): calcd […]
Analysis of probe purity by LC-MSD
Prepare dilute solutions of FPy1, YPy1 and WPy1 using chromatographic-grade acetonitrile and transfer them to sample vials. Begin with an initial mobile phase consisting of 20% acetonitrile (0.05 % formic acid) and 80% H2O (0.05 % formic acid). Over the course of 30 minutes, implement a gradient change to a mobile phase of 90% acetonitrile (0.05 % formic acid) and 10% H2O (0.05 % FA). Under the elution conditions, LC-MSD was performed on the above probe solutions and blank solvent acetonitrile.
Sensitivity of probes for caspase-1
To investigate the sensitivity of the probes for caspase-1, varying concentration of caspase-1 (0, 0.2, 0.4, 0.6, 0.8, 1.0, 1.25, 1.5, 1.75, 2, 2.5, 3 U/mL) were incubated with FPy1 (5 μM), YPy1 (5 μM) and WPy1 (5 μM) respectively in caspase-1 assay buffer (50 mM HEPES, 50 mM NaCl, 0.1 % chaps, 5 % glycerol, 10 mM DTT, 10 mM EDTA) at 37 °C for 2 hours. Fluorescence spectra were recorded using Hitachi F-2700 spectrophotometer with an excitation at 510 nm (Photomultiplier voltage 700 V; Slit widths ex: 10 nm and em =5.0 nm). The fluorescence intensity of FPy1, YPy1 and WPy1 at 585 nm were plotted against the concentration of caspase-1, and a linear regression fitted from the corresponding concentration of caspase-1, and linear regression was applied to determine the slope k. The limit of detection (LoD) was calculated from 3σ/k, in which σ represents the standard deviation of 15 blank measurements.
Various concentrations of FPy1, YPy1 and WPy1 (0.5, 1, 2, 4 μM) in 100 μL enzyme assay buffer (50 mM HEPES, 50 […]

In the case of CC(C)(O)c1coc(S(=O)(=O)NC(=O)Nc2c3c(cc4c2CCC4)CCC3)c1 [MCC950, reference compound], the “fluorescence intensity of FPy1, positive drug group vs model group” value [1] is reported as “significantly lower than in the model group”.

For “–WEHDG– [WPy1, caspase-1-responsive FRET probe with recognition peptide –WEHDG–; RhoB donor, hNR quencher]”, the “time to maximum fluorescence intensity at 585 nm (reaction time)” value (caspase-1 [2]) was 60 min, the “fluorescence response to caspase-8” value (caspase-8) was “a certain level of response to caspase-8” and the “maximum fluorescence intensity at 585 nm” value (caspase-1 [3]; compared with FPy1 and YPy1) was “significantly lower than that of FPy1 and YPy1”. The “baseline fluorescence intensity at 585 nm” value (caspase-1 [3]; compared with other probes) was “lower baseline fluorescence intensity”, the “linear fitting range of Cas-1 concentration” value (caspase-1 [3]; fluorescence intensity at 585 nm vs Cas-1 concentration, 37 °C, 2 h) was 0–1.25 U mL^−1 and the “enhancement of fluorescence intensity at 585 nm” value (caspase-1 [3]; Cas-1 0–3 U/mL, assay buffer 50 mM HEPES, 50 mM NaCl, 0.1% chaps, 5% glycerol, 10 mM DTT, 10 mM EDTA, 37 °C, 2 h, λex 510 nm) was “about 11.5 fold”.
